Reference: US20180369230A1, “TARGETED SELECTION OF PATIENTS FOR TREATMENT WITH SPECIFIC CORTISTATIN DERIVATIVES” (President and Fellows of Harvard College, priority 2015, published 2018)

Tests used:
SK-N-F1 = experiment: Soft agar growth assay; assay type: cell-based; details: SK-N-F1, Neuroblastoma, 100 nM
Protocol: (§1) For the 62 cell lines 96 well suspension cell culture plates were prepared. 100 μL of the soft agar bottom layer (0.6% final concentration in complete medium) was poured and left to solidify. 50 μL of the soft agar top layer (0.4% final concentration) containing the corresponding cells and cell number were then added on top, solidified and incubated at 37° C., 10% CO2. After the soft agar had solidified, the test items were added at indicated final concentrations into the inner wells of the plate. Subsequently, the assay was incubated in cell culture incubators for 8 to 14 days. Finally, the assay was developed using Alamar Blue and upon 1-5 h of incubation at 37° C. fluorescence intensity was determined (excitation: 560 nm; emission: 590 nm). As low control, cells were treated with 1E-05M Staurosporine (6fold values). As high control, cells were treated with 0.1% DMSO (solvent control, 6 fold values).
(§2) Raw data were converted into percent soft agar growth relative to high controls (solvent 0.1% DMSO) and low controls (1E-05M Staurosporine), which were set to 100% and 0%, respectively. The results are tabulated in FIGS. 15A, 15B, and 15C and Table 4 below.

U87MG = experiment: Soft agar growth assay; assay type: cell-based; details: Glioma, inactivating mutations in ETV1, FLI1 and SMC3, 100 nM
Protocol: as §1, §2

RL95-2 = experiment: Soft agar growth assay; assay type: cell-based; details: RL95-2, Endometrial cancer, ER-alpha positive, 100 nM
Protocol: as §1, §2

SK.BR-3 = experiment: Soft agar growth assay; assay type: cell-based; details: SK.BR-3, Breast cancer, HER2 overexpression, 100 nM
Protocol: as §1, §2

NCI-N87 = experiment: Soft agar growth assay; assay type: cell-based; details: NCI-N87, Gastric cancer, HER2 overexpression, 100 nM
Protocol: as §1, §2

SK-N-MC = experiment: Soft agar growth assay; assay type: cell-based; details: Neuroblastoma, EWS-FLI1, 100 nM
Protocol: as §1, §2

SK-N-SH = experiment: Soft agar growth assay; assay type: cell-based; details: Neuroblastoma, 100 nM
Protocol: as §1, §2

SK-ES-1 = experiment: Soft agar growth assay; assay type: cell-based; details: SK-ES-1, Osteosarcoma, EWS-FLI1, 100 nM
Protocol: as §1, §2

MKN-45 = experiment: Soft agar growth assay; assay type: cell-based; details: MKN-45, Gastric cancer, MET amplification, 100 nM
Protocol: as §1, §2

MCF-7 = experiment: Soft agar growth assay; assay type: cell-based; details: MCF-7, Breast cancer, ER-alpha positive, 100 nM
Protocol: as §1, §2

Caki-2 = experiment: Soft agar growth assay; assay type: cell-based; details: Caki-2, clear cell renal cell carcinoma, VHL negative, 100 nM
Protocol: as §1, §2

A498 = experiment: Soft agar growth assay; assay type: cell-based; details: A498, clear cell renal cell carcinoma, VHL negative, 100 nM
Protocol: as §1, §2

HCC827 = experiment: Soft agar growth assay; assay type: cell-based; details: HCC827, Non small cell lung carcinoma, EGFR mutation, 100 nM
Protocol: as §1, §2

T47D = experiment: Soft agar growth assay; assay type: cell-based; details: Breast cancer, ER-alpha positive, 100 nM
Protocol: as §1, §2

RUNX1 target genes = experiment: Determination of gene expression levels; assay type: cell-based, human; details: SET-2, MOLM-14 and MV4;11
Protocol: Leukemia cells were plated (12-well) in triplicate at 500,000-800,000 cells per ml and incubated in the presence of vehicle (0.1% DMSO) or CA (25 nM 3 h for K562, MOLM-14 and MV4;11; 10 nM 24 h for MOLM-14; 25 nM 4 h for SET-2, n=3 for each cell line). Cells were then washed twice with cold PBS, and snap frozen. RNA was isolated (RNeasy Plus Microkit, Qiagen or TRIzol, Life Technologies), processed, and, for K562, MOLM-14 and MV4;11, hybridized to the Human U133 Plus 2.0 microarray (Affymetrix). Microarrays were processed with Bioconductor packages affyQCReport for quality control and affy for background correction, summarization, and normalization using rma. […] SET-2 and HCT 116 gene expression was measured by RNA-seq. […] Reads were aligned in two passes, first with rnaStar (v.2.3.0e) then with BWA (v.0.7.5a) for remaining unmapped reads, both using default parameters. Mapped reads were merged and counted using HTSeq (v.0.5.3p3) with -s yes -m intersection-strict. […] Samples were run in a single lane on an Illumina HiSEQ 2000 sequencer with a single read flow cell using 1×50-bp reads and a 6-cycle index read. Reads were mapped to the hg19 reference genome using Tophat2 v.2.0.6 with custom settings including the setting of -library-type fr- firstrand to appropriately account for the stranded nature of the protocol. […]

RUNX1 = RUNX1 recruitment to genomic loci; assay type: cell-based; details: FIG. 11
[1] = test system: ruxolitnib persistence cells; experiment: Growth inhibition in ruxolitinib persistent cells; assay type: cell-based; details: FIG. 5 legend; read-out: G150 in ruxolitnib persistence cells

Substance: Cortistatin A
- % growth rel. to vehicle (SK-N-F1): 30%
- % growth rel. to vehicle (U87MG): 36%
- % growth rel. to vehicle (RL95-2): 16%
- % growth rel. to vehicle (SK.BR-3): 22%
- % growth rel. to vehicle (NCI-N87): 26%
- % growth rel. to vehicle (SK-N-MC): 45%
- % growth rel. to vehicle (SK-N-SH): 29%
- % growth rel. to vehicle (SK-ES-1): 36%
- % growth rel. to vehicle (MKN-45): 27%
- % growth rel. to vehicle (MCF-7): 49%
- % growth rel. to vehicle (Caki-2): 18%
- % growth rel. to vehicle (A498): 51%
- % growth rel. to vehicle (HCC827): 23%
- % growth rel. to vehicle (T47D): 48%
- expression of RUNX1 target genes including CEBPA, IRF8 and NFE2 (RUNX1 target genes): upregulated
- RUNX1 recruitment to loci (RUNX1): recruited
- IC50 [1]: 2 to 10 nM
